The record followed here is paper PMC10762078, “Role of UPF1-LIN28A interaction during early differentiation of pluripotent stem cells” (Nature Communications, 2024).

The test relates to hPSCs. The test can be described thus: RT-qPCR of pluripotency and germ-layer markers during differentiation with CPP-peptides (Supplementary Fig. 7b-e). Format: cell-based, human. The conditions noted are these: ectodermal differentiation. Here is the method:
For CPP-conjugated peptide delivery, HeLa, 293T, and PA-1 cells were incubated with CPP-conjugated peptides or CPP-FITC at 2 μM in DMEM with 10% FBS for 12 h a day before cell harvest. hPSCs were treated with CPP-conjugated peptides at 10 μM in mTeSR Plus Medium, and the peptide-containing medium was changed every day over 10 days. The ROCK inhibitor (Tocris Bioscience, Y-27632) treated-hPSCs were dissociated into single cells using Accutase (Merck, SCR005) and differentiated into ectoderm, mesoderm, and endoderm using the STEMdiff Trilineage Differentiation Kit ([…] Technologies, 05230) following the manufacturer’s protocol. Differentiated cells treated with CPP-conjugated peptides were analysed at 0, 3, and 5 days for ectoderm and endoderm, and at 0, 3, and 4 days for mesoderm. […]
cDNA was synthesised using RevertAid Reverse Transcriptase (Thermo Fisher Scientific, EP0441) with synthesised random hexamer (Macrogen) for total RNA or stem-loop primers for miRNA. For RT-qPCR reactions, the SensiFAST SYBR No-ROX kit (Meridian Bioscience) was used according to the manufacturer’s protocol. All data analysis and visualisation were conducted using R 3.6.1 [www.r-project.org] or GraphPad Prism 10. RT primers for miRNA and RT-qPCR primer sequences are provided in Supplementary Data 6. […]
FPKM of each gene was presented f r om RNA-seq analysis. b–e hPSCs wer e treated with the indicated peptide during each germ la ye r differentiation. […]
An unpaired Student’s t-test was used for a–e. Data are presented as mean values ± SEM. All statistical test us ed wer e two-s ided. T he m inim um number of independent biological replicate experim ents was a–f n = 3. T he experiments wer e conducted three tim es, each iteration producing consistent results.

For the sequence “KKKWCRKKKSSADEKRYRALKRTAERELLMNA [CPP-P8, CPP conjugated to P8]”, the “transcripts downregulated in ectodermal differentiation” value was “downregulated the expression of genes closely associated with CNS development (DCX, NEUROD1, NOS2, and PAX3)”; the “transcripts upregulated in ectodermal differentiation” value was “upregulated the essential transcription factors for retinal gliogenesis and NOTCH signalling (LHX2, NOTCH1, and DLK1)”.
